# Data as given in patent publication US11478476B2 (CONTERA PHARMA APS, priority 2014, dated 2022).
# Experiments:
# [1] = biological target: T1, human recombinant 5-HT1A receptors (Homo sapiens, UniProt P08908); conditions: cited from earlier work; for Ki: nM printed, table head has no unit
# T1 sequence (P08908 1-422): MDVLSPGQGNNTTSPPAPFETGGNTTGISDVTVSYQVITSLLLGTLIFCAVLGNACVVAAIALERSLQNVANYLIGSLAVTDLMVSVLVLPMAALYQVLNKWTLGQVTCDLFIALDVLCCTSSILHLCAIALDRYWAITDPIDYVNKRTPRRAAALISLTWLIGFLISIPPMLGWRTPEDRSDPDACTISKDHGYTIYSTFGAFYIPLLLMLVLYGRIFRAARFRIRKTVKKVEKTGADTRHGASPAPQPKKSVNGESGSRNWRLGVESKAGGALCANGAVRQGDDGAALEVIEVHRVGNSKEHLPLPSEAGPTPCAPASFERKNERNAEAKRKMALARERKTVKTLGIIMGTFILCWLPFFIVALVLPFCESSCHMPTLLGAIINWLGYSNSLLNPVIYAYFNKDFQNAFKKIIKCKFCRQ
# [2] = cited from earlier work
# PD model rats = test: Stepping test (adjusting steps) in PD model rats; format: in vivo, rat; conditions: 10 mg/kg, sc; PD model rats
# Protocol: The stepping test (Schallert et al., 1992) was performed as described by Kirik et al., 2001 with little modifications. Briefly, the rat was held by the experimenter fixing its hindlimbs with one hand and the forelimb not to be monitored with the other, while the unrestrained forepaw was touching the table. The number of adjusting steps was counted, while the rat was moved sideways along the table surface (90 cm in 5 s), in the forehand and backhand direction, for both forelimbs, and the average of the steps in the two directions is considered.
# 30 male PD model rats were used for adjusting steps test with the following groups: • 1. Vehicle 1+Vehicle 2 (n=7) • 2. Vehicle 1+L-DOPA (10 mg/kg, sc) (n=7) • 3. 6-OH-Busp (3 mg/kg, sc)+Vehicle 2 (n=8) • 4. 6-OH-Busp (3 mg/kg, sc)+L-DOPA (10 mg/kg, sc)
# The PD rats were handled for 3 consecutive days. Vehicle 1 or 6-OH-Busp will s.c. dosed 61 min before adjusting steps test. Vehicle 2 or L-DOPA/Benserazide dosed 60 min before adjusting steps test. On testing day, the rats were held by both hind limbs and the untested forepaw. The test forepaw was placed on a flat surface and dragged in the forehand direction for 90 cm distance over 5 s. The number of adjusting steps was counted for both paws in the backhand and forehand directions of movement. […] Data were analyzed and graphed by Graph Pad Prism 6.
# [3] = system: L-DOPA induced dyskinesia (LID) model rats; test: L-DOPA induced AIMs in 6-OHDA lesioned LID model rats; format: in vivo, rat
# Text: Animals: 80 experimentally-naïve, male, 9 weeks old Sprague-Dawley rats at body weight of 200 to 250 g arrive at the laboratory at least 1 week prior to behavioural testing. Rats were housed in groups of n=2/cage. Animals had ad libitum access to standard rodent chow and water. Animal housing and testing rooms were maintained under controlled environmental conditions and were within close proximity of each other. Animal housing rooms were on a 12-hour light-dark cycle with lights on at 6:00 AM and maintained at 70° F./21° C. (range: 68-72° F./20-22° C.) with a humidity range of 20-40%. Testing rooms were maintained at 68-72° F. with a humidity range of 20-40%. DA (dopamine)-denervating lesions were performed by unilateral injection of 6-OHDA in the ascending nigrostriatal pathway. Rats were anesthetized with pentobarbital sodium 40 mg/kg (i.p.) and positioned in a stereotactic frame. 6-OHDA was injected into the right ascending DA bundle at the following coordinates relative to bregma and dural surface: A (anterior-posterior), L (lateral), V (dorsoventral): A −1.8, L −2.0, V −8.6, tooth bar 0.0.
# The neurotoxin injections were performed at a rate of 1 ul/min, and the injection cannula is left in place for an additional 2-3 min thereafter. Two weeks after surgery, contralateral full body turns were recorded over 30 min, following s.c. injection of 0.5 mg/kg of apomorphine sulfate. The animals were placed in plastic Perspex bowls (30 cm in diameter) and the rotational behavior (360° turns) is recorded by an automated rotometer for […] after the s.c. injection of 0.5 mg/kg of apomorphine sulfate. Apomorphine (0.5 mg/kg, s.c.) induced contralateral rotation in unilateral 6-OHDA lesioned rats. 73 rats with rotations ≥180/30 min, indicating >90% DA lesion in nigrostriatal pathway, were chosen as the PD model rats for chronic L-DOPA treatment.
# Starting one day after the apomorphine-induced rotation test, 6-OHDA-lesioned rats were treated with daily L-DOPA (Sigma-Aldrich, Germany) (8 mg/kg plus benserazide 15 mg/kg, s.c.) for 21 days. Rats were placed individually in transparent plastic cages without bedding material and scored every 20 min following the injection of L-DOPA for the entire time course of dyskinesias (120 min). The AIMs were classified into four subtypes according to their topographic distributions such as Locomotive, Forelimb, Axial and Orolingual behaviors. The severity of each AIM subtype was assessed by using scores from 0 to 4 (1: occasional, i.e. present less than 50% of the time; 2: frequent, i.e. present more than 50% of the time; 3: continuous, but interrupted by strong sensory stimuli; 4: continuous, not interrupted by strong sensory stimuli). In this study, rats with an AIMs≥28 were considered highly dyskinetic, while rats with an AIMs<28 either low or none-dyskinetic.
# After chronic L-DOPA treatment on PD rats for 21 days, 42 LID model rats (348 g˜501 g, 15 weeks old) were successfully created with the criteria of total AIM scores (Lo+Li+AX+OI)≥28 points.
# AIMs ratings were performed by an investigator who was kept unaware of the pharmacological treatment administered to each rat (experimentally blinded). In order to quantify the severity of the AIMs, rats were observed individually in their standard cages every 20th minute at 20-180 min after an injection of I-DOPA. The AIM's were classified into four subtypes:
# Each of the four subtypes are scored on a severity scale from 0 to 4, where 0=absent, 1=present during less than half of the observation time, 2=present for more than half of the observation time, 3=present all the time but suppressible by external stimuli, and 4=present all the time and not suppressible by external stimuli. Axial, limb and orolingual AIMs are found to be modulated in a similar way by all the tested substances.
# Rats were tested for AIMs using the sum of locomotive (LO) oraxial (AX), limb (LI), and orolingual (OL) AIM scores per testing session for statistical analyses. […]
# [4] = system: Parkinson's disease patients; conditions: cited from earlier work
# [5] = oral administration of buspirone, human volunteers; analyte = label (6-OH-Busp: total, both enantiomers); cited from earlier work
# [6] = biological target: T2, human recombinant dopamine D4 receptor (Homo sapiens, UniProt P21917); conditions: saturating concentrations of dopamine; read-out: D4 efficacy IC50 ± SEM; cited from earlier work
# T2 sequence (P21917 1-419): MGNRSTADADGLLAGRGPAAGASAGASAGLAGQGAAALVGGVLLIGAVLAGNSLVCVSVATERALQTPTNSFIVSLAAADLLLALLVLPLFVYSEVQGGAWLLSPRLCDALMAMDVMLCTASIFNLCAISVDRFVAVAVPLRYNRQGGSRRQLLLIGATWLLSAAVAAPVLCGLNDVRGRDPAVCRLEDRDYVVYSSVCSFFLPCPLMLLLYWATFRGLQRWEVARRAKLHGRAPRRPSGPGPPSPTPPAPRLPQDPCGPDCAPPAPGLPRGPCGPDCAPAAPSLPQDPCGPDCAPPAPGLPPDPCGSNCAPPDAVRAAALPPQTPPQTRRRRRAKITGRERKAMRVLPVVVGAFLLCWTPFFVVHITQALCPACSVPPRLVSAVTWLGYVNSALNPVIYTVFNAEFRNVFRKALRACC
# [7] = after administration of radiolabeled buspirone; cited from earlier work
# dopamine D3 receptors = conditions: oral buspirone at therapeutically relevant doses; cited from earlier work
# [8] = biological target: T2, human recombinant dopamine D4 receptor; conditions: read-out: D4 affinity Ki ± SEM; cited from earlier work
# [9] = biological target: T3, human recombinant dopamine D3 receptor (Homo sapiens, UniProt P35462); conditions: saturating concentrations of dopamine; read-out: D3 efficacy IC50 ± SEM; cited from earlier work
# D2 receptors = conditions: oral buspirone; cited from earlier work
# [10] = biological target: T3, human recombinant dopamine D3 receptor; conditions: read-out: D3 affinity Ki ± SEM; cited from earlier work
# [11] = biological target: T4, human recombinant dopamine D2 receptor (Homo sapiens, UniProt P14416); conditions: read-out: D2 affinity Ki ± SEM; cited from earlier work
# [12] = biological target: T4, human recombinant dopamine D2 receptor; conditions: saturating concentrations of dopamine; read-out: D2 efficacy IC50 ± SEM; cited from earlier work
# T3 sequence (P35462 whole entry): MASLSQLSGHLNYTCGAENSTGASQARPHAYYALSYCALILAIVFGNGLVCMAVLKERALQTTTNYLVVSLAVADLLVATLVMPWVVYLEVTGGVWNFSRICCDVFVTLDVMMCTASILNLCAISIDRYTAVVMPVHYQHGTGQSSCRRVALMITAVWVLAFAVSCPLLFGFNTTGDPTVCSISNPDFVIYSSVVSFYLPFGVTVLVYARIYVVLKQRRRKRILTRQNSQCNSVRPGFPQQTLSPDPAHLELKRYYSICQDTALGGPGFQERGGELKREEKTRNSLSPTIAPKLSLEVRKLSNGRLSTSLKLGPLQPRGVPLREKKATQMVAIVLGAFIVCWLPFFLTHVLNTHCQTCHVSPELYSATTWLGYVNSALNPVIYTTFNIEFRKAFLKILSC
# T4 sequence (P14416 whole entry): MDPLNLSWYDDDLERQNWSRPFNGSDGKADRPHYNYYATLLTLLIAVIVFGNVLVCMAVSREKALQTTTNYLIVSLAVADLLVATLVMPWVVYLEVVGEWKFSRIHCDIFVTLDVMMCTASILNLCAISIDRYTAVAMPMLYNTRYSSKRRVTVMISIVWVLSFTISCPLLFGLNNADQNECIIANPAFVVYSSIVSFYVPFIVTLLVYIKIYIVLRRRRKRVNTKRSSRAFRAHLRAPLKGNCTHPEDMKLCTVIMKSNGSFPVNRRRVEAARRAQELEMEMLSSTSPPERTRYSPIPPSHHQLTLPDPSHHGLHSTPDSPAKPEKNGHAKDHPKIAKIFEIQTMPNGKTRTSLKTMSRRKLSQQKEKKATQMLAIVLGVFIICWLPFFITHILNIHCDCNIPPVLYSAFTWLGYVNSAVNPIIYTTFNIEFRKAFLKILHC
smiles,measurement,setting,value
"c1cnc(N2CCNCC2)nc1 [1-PP, 1-(2-pyrimidinyl)-piperazine]",IC50,[1],> 1000 nM
same,exposure (area under the concentration-time profile) of metabolite relative to parent compound,[2]; oral dosing of buspirone in rats,49 fold
"N[C@@H](Cc1ccc(O)c(O)c1)C(=O)O [L-DOPA, 3,4-dihydroxyphenylalanine, reference compound]",number of adjusting steps,PD model rats,increased
"CN(C)CCc1c[nH]c2ccc(C[C@H]3COC(=O)N3)cc12 [Zolmitriptan, (S)-4-({3-[2-(dimethylamino)ethyl]-1H-indol-5-yl}methyl)-1,3-oxazolidin-2-one, reference compound]",AIMs at any time points,"[3]; Example XIII, 10 mg/kg s.c.",did not have any effects
"O=C1CC2(CCCC2)CC(=O)N1CCCCN1CCN(c2ncccn2)CC1 [Buspirone, 8-[4-(4-pyrimidin-2-ylpiperazin-1-yl)butyl]-8-azaspiro[4.5]decane-7,9-dione, reference compound]",disability ratings,[4]; 100 mg/day,significant worsening
same,dyskinesia,[4]; 100 mg/day,reduced
same,effects on Parkinson's disease or dyskinesia,[4]; 10-60 mg/day,did not have any effects
same,AUC0-INF,[5],3.93 ngxh/ml
same,Cmax,[5],1.39 ng/mL
same,IC50,[6],350 ± 60 nM
same,unchanged buspirone as share of total radioactivity in human plasma,[7],less than 2%
same,in vivo blockade of dopamine D3 receptors (PET),dopamine D3 receptors,blocks
same,total AIMs of LID rats at time points,"[3]; Example XII, 1 mg/kg s.c., 50, 70, 90, 110, 130, 150, 170 and 190 min, vs vehicle",significantly attenuated
same,AUC of total AIMs from 10 min to 190 min,"[3]; Example XII, buspirone 1 mg/kg s.c., 6-OH-Busp 0.3, 1 and 3 mg/kg s.c., vs vehicle",decreased
same,Ki,[8],29.2 ± 11.3 nM
same,plasma half-life,[2]; rats,54 ± 24 min
same,IC50,[9],440 ± 180 nM
same,in vivo blockade of D2 receptors (PET),D2 receptors,did not cause blockade
same,Ki,[10],98 ± 16 nM
O=C1CC2(CCCC2)CC(=O)N1CCCCN1CCN(c2ncc(O)cn2)CC1 [5-OH-Busp],IC50,[1],928 nM
same,Ki,[1],464 nM
same,Ki,[11],4010 ± 792 nM
same,IC50,[6],1400 ± 820 nM
same,Ki,[8],107 ± 44.8 nM
same,IC50,[12],2600 ± 1300 nM
same,IC50,[9],930 ± 460 nM
same,Ki,[10],261 ± 46 nM
O=C1CC2(CCC(O)C2)CC(=O)N1CCCCN1CCN(c2ncccn2)CC1 (stereo not drawn) [3-OH-Busp],IC50,[1],652 nM
same,Ki,[1],326 nM
"CN1CC(=O)N=C1NC(=O)Nc1cccc(Cl)c1 [Fenobam, 1-(3-chlorophenyl)-3-(3-methyl-5-oxo-4H-imidazol-2-yl)urea, reference compound]",AIMs of LID rats at any time points,"[3]; Example XIV, 30 mg/kg, s.c. as printed",did not have significant effects
